# Laboratory results taken from paper PMC3214660 (Cancer prevention research (Philadelphia, Pa.), 2011).
# Tests used:
# [1] = tested on: COX-2 in RAW264.7 cells; type: cell-based, murine
# [2] = target: T1, mCOX-2 (Mus musculus, UniProt Q05769); assay: Enzyme-inhibitor binding kinetics, time-dependent inhibition of purified mCOX-2; type: biochemical; details: mCOX-2, time-dependent inhibition
# T1 sequence (Q05769 18-604): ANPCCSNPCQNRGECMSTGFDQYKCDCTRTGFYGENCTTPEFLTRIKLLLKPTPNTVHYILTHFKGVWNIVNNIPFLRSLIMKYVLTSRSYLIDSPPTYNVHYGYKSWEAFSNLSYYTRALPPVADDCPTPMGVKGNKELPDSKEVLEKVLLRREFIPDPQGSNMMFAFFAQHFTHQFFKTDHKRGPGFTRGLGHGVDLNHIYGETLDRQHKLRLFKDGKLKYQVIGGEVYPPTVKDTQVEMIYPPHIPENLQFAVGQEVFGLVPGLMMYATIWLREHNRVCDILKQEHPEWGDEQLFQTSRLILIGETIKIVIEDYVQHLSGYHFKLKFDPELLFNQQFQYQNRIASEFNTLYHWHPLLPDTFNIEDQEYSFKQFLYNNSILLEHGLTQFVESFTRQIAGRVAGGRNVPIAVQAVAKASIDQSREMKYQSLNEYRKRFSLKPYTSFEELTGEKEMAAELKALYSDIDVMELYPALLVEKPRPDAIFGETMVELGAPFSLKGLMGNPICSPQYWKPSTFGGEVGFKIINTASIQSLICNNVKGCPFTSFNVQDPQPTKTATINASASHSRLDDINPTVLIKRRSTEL
# [3] = Tissue analysis for defluorination in rat footpads; type: in vivo, Sprague-Dawley rats; details: compound 7 1 mg/kg i.p., 2 hours post dosing
"IC50 ([1]; Mus musculus, RAW264.7, 0.5 h, read-out: RAW246.7 Cells IC50 COX-2) [nM]",dissociation rate k−2 [2] [s⁻¹],inactivation rate k2 [2] [s⁻¹],"KI, equilibrium constant for initial association (k−1/k1) ([2]; 37 °C) [nM]","calculated extent of defluorination ([3]; rat footpad, n = 3) [%]","amount in inflamed footpad ([3]; rat, LC-MS) [pmol/g tissue]",Structure (SMILES),"Inhibition of COX-2 in intact RAW264.7 cells, in words ([1]; activated RAW264.7 cells, prostaglandin production)"
10,,,,,,"COc1ccc2c(c1)c(CC(=O)O)c(C)n2C(=O)c1ccc(Cl)cc1 [Indomethacin, reference compound]",
,0.0003,0.035,7300 ± 1600,8.8 ± 5.0,486.3,Cc1ccc(-c2cc(CF)nn2-c2ccc(S(N)(=O)=O)cc2)cc1 [Compound 7],low nanomolar range
